According to patent US20060100431A1, “Biologically active compounds” (Amura Therapeutics Limited, priority 2002, published 2006):
Where two headings read alike, the source gives them in different places.

Columns and labels:
human cathepsin B = target: T1, human cathepsin B (Homo sapiens, UniProt P07858); test: Cathepsin B peptidase activity assay (Ki); type: biochemical; conditions: read-out: Ki, inhibitors of cathepsin B
T1 construct: purchased CN Biosciences
Outline: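 Buffer: 10 mM bis-tris-propane pH 6.5, 1 mM EDTA, 5 mM 2-mercaptoethanol, 1 mM CaCl2; DMSO <1%. Ki assumed reversible, pure-competitive, from Ki^app=Ki(1+[So]/KM^app) by non-linear regression.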

Bovine cathepsin S = target: T2, Bovine cathepsin S (Bos taurus, UniProt P25326); test: Cathepsin S peptidase activity assay, bovine enzyme (Ki); type: biochemical
T2 construct: purchased CN Biosciences
T2 sequence (P25326 115-331): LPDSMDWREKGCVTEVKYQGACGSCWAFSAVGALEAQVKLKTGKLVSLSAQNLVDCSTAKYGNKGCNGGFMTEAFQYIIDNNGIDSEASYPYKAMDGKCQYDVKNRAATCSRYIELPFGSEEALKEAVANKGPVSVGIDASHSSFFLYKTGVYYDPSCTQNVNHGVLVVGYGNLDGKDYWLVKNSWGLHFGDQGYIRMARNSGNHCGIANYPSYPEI
Outline: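 Bovine cathepsin S activity followed by fluorescence increase from substrate conversion to product over time, enzyme added to start the reaction, at 25±1° C. Buffer 10 mM bis-tris-propane pH 6.5 with 1 mM EDTA, 5 mM 2-mercaptoethanol, 1 mM CaCl2; DMSO kept below 1% (vol./vol.).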

[1] = Table 5, read-out: Ki Bovine Cathepsin S
[2] = species of cathepsin S not given, read-out: Ki, inhibitors of cathepsin S

Structure (SMILES) | Ki (human cathepsin B) | Ki (Bovine cathepsin S; [1]) | Ki (Bovine cathepsin S; [2])
CC(C)C[C@H](NC(=O)c1ccc(-c2cccs2)cc1)C(=O)N1CC[C@@H]2[C@H]1C(=O)CN2C(=O)c1ccccc1 [Example 2, (3aR,6aS)-N-[(1S)-1-(4-Benzoyl-6-oxo-hexahydro-pyrrolo[3,2-b]pyrrole-1-carbonyl)-3-methyl-butyl]-4-thiophen-2-yl-benzamide] | < 5 µM | > 1 µM | 
CC(C)C[C@H](NC(=O)c1cc2ccccc2s1)C(=O)N1CC[C@@H]2[C@H]1C(=O)CN2C(=O)c1ccccc1 [Example 7, (3aR,6aS)-Benzo[b]thiophene-2-carboxylic acid [(1S)-1-(4-benzoyl-6-oxo-hexahydro-pyrrolo[3,2-b]pyrrole-1-carbonyl)-3-methyl-butyl]-amide] | < 5 µM |  | < 5 µM
CC(C)C[C@H](NC(=O)c1ccc(N(C)C)cc1)C(=O)N1CC[C@@H]2[C@H]1C(=O)CN2C(=O)c1ccccc1 [Example 14, (3aR,6aS)-N-[(1S)-1-(4-Benzoyl-6-oxo-hexahydro-pyrrolo[3,2-b]pyrrole-1-carbonyl)-3-methyl-butyl]-4-dimethylamino-benzamide] | < 5 µM |  | < 5 µM
CC(C)C[C@H](NC(=O)c1cccc(N(C)C)c1)C(=O)N1CC[C@@H]2[C@H]1C(=O)CN2C(=O)c1cccc(S(C)(=O)=O)c1 [Example 59, (3aR,6aS)-3-Dimethylamino-N-{(1S)-1-[4-(3-methanesulfonyl-benzoyl)-6-oxo-hexahydro-pyrrolo[3,2-b]pyrrole-1-carbonyl]-3-methyl-butyl}-benzamide] | < 5 µM |  | < 5 µM
CC(C)C[C@H](NC(=O)c1ccc2c(c1)CCCN2)C(=O)N1CC[C@@H]2[C@H]1C(=O)CN2C(=O)c1ccccc1 [Example 87, (3aR,6aS)-1,2,3,4-Tetrahydro-quinoline-6-carboxylic acid [(1S)-1-(4-benzoyl-6-oxo-hexahydro-pyrrolo[3,2-b]pyrrole-1-carbonyl)-3-methyl-butyl]-amide] | < 5 µM |  | < 5 µM
CC(C)C[C@H](NC(=O)c1ccc2ncsc2c1)C(=O)N1CC[C@@H]2[C@H]1C(=O)CN2C(=O)c1ccccc1 [Example 90, (3aR,6aS)-Benzothiazole-6-carboxylic acid [(1S)-1-(4-benzoyl-6-oxo-hexahydro-pyrrolo[3,2-b]pyrrole-1-carbonyl)-3-methyl-butyl]-amide] | < 5 µM |  | < 5 µM
CC(C)C[C@H](NC(=O)c1ccc(-n2cccn2)cc1)C(=O)N1CC[C@@H]2[C@H]1C(=O)CN2C(=O)c1ccccc1 [Example 91, (3aR,6aS)-N-[(1S)-1-(4-Benzoyl-6-oxo-hexahydro-pyrrolo[3,2-b]pyrrole-1-carbonyl)-3-methyl-butyl]-4-pyrazol-1-yl-benzamide] | < 5 µM |  | < 5 µM
CC(C)C[C@H](NC(=O)c1ccc(N(C)C)cc1)C(=O)N1CC[C@@H]2[C@H]1C(=O)CN2C(=O)c1csc2ccccc12 [Example 103, (3aR,6aS)-N-{(1S)-1-[4-(Benzo[b]thiophene-3-carbonyl)-6-oxo-hexahydro-pyrrolo[3,2-b]pyrrole-1-carbonyl]-3-methyl-butyl}-4-dimethylamino-benzamide] | < 5 µM |  | < 5 µM
CC(=O)N[C@@H](CC(C)C)C(=O)N1CC(=O)[C@@H]2[C@H]1CCN2C(=O)[C@H](CC(C)C)NC(=O)c1ccc(N(C)C)cc1 [Example 151, (3aR,6aS)-N-{(1S)-1-[4-((2S)-2-Acetylamino-4-methyl-pentanoyl)-6-oxo-hexahydro-pyrrolo[3,2-b]pyrrole-1-carbonyl]-3-methyl-butyl}-4-dimethylamino-benzamide] | < 5 µM |  | < 5 µM
CC(C)C[C@H](NC(=O)c1ccc(N(C)C)cc1)C(=O)N1CC[C@@H]2[C@H]1C(=O)CN2C(=O)[C@@H](NC(=O)OCc1ccccc1)C(C)C [Example 158, (3aS,6aR)-((S)-1-{4-[(2S)-2-(4-Dimethylamino-benzoylamino)-4-methyl-pentanoyl]-3-oxo-hexahydro-pyrrolo[3,2-b]pyrrole-1-carbonyl}-2-methyl-propyl)-carbamic acid benzyl ester] | < 5 µM |  | < 5 µM
CC(C)C[C@H](NC(=O)c1ccc(OC(F)(F)F)cc1)C(=O)N1CC[C@@H]2[C@H]1C(=O)CN2C(=O)c1ccccc1 [Example 173, (3aR,6aS)-N-[(1S)-1-(4-Benzoyl-6-oxo-hexahydro-pyrrolo[3,2-b]pyrrole-1-carbonyl)-3-methyl-butyl]-4-trifluoromethoxy-benzamide] | < 5 µM |  | < 5 µM
CC(C)C[C@H](NC(=O)c1ccc(N2CCNCC2)cc1)C(=O)N1CC[C@@H]2[C@H]1C(=O)CN2C(=O)c1ccccc1 [Example 194, (3aR,6aS)-N-[(1S)-1-(4-Benzoyl-6-oxo-hexahydro-pyrrolo[3,2-b]pyrrole-1-carbonyl)-3-methyl-butyl]-4-piperazin-1-yl-benzamide] | < 5 µM |  | < 5 µM
CC(C)C[C@H](NC(=O)c1cccc(N2CCNCC2)c1)C(=O)N1CC[C@@H]2[C@H]1C(=O)CN2C(=O)c1ccccc1 [Example 247, (3aR,6aS)-N-[(1S)-1-(4-Benzoyl-6-oxo-hexahydro-pyrrolo[3,2-b]pyrrole-1-carbonyl)-3-methyl-butyl]-3-piperazin-1-yl-benzamide] | < 5 µM |  | < 5 µM
CC(C)C[C@H](NC(=O)c1ccc(C(C)(C)C)cc1)C(=O)N1NC[C@@H]2[C@H]1C(=O)CN2C(=O)c1ccccc1 [Example 249a, (3aR,6aS)-N-[(1S)-1-(4-benzoyl-6-oxo-hexahydropyrrolo[3,2-c]pyrazole-1-carbonyl)-3-methylbutyl]-4-tert-butylbenzamide] | < 5 µM |  | < 5 µM
CC(C)CC(NC(=O)c1ccc(N)cc1)C(=O)N1NC[C@@H]2[C@H]1C(=O)CN2C(=O)c1ccccc1 (stereo partly drawn) [Example 249b, (3aR,6aS)-4-amino-N-[1-(4-benzoyl-6-oxo-hexahydropyrrolo[3,2-c]pyrazole-1-carbonyl)-3-methylbutyl)benzamide] | < 5 µM |  | < 5 µM
CC(C)C[C@H](NC(=O)c1ccc(N)cc1)C(=O)N1NC[C@@H]2[C@H]1C(=O)CN2C(=O)c1cccc(S(C)(=O)=O)c1 [Example 249c, (3aR,6aS)-4-amino-N-{(1S)-1-[4-(3-methanesulfonylbenzoyl)-6-oxo-hexahydropyrrolo [3,2-c]pyrazole-1-carbonyl]-3-methylbutyl}benzamide] | < 5 µM |  | < 5 µM
O=C(N[C@@H](CC1CCCCC1)C(=O)N1CC[C@@H]2[C@H]1C(=O)CN2C(=O)c1ccccc1)c1ccsc1 [Example 250, (3aR,6aS)-Thiophene-3-carboxylic acid [(1S)-2-(4-benzoyl-6-oxo-hexahydro-pyrrolo[3,2-b]pyrrole-1-yl)-1-cyclohexylmethyl-2-oxo-ethyl]-amide] |  | < 0.1 µM | 
O=C(N[C@@H](Cc1ccc(O)cc1)C(=O)N1CC[C@@H]2[C@H]1C(=O)CN2C(=O)c1ccccc1)c1cccc2ccccc12 [Example 296, (3aR,6aS)-Naphthalene-1-carboxylic acid [(1S)-2-(4-benzoyl-6-oxo-hexahydro-pyrrolo[3,2-b]pyrrole-1-yl)-1-(4-hydroxybenzyl)-2-oxo-ethyl]-amide] | < 5 µM | > 5 µM | 
CC(C)(C)c1ccc(C(=O)N[C@@H](Cc2ccc(O)cc2)C(=O)N2CC[C@@H]3[C@H]2C(=O)CN3C(=O)c2ccccc2)cc1 [Example 346, (3aR,6aS)-N-[(1S)-2-(4-Benzoyl-6-oxo-hexahydro-pyrrolo[3,2-b]pyrrol-1-yl)-1-(4-hydroxybenzyl)-2-oxo-ethyl]-4-tert-butyl-benzamide] |  | > 10 µM | 
